The term inhibition denotes the drop in the measured response relative to a control, in per cent. By EC50 is commonly meant the concentration that produces a half-maximal response. In general, IC50 refers to the concentration that gives 50% inhibition. A low value points to higher potency.

From ChEMBL document CHEMBL4376846, “Peptide-β-lactam Inhibitors of Dengue and West Nile Virus NS2B-NS3 Protease Display Two Distinct Binding Modes” (J Med Chem, 2020) come the findings set out here.

Data set [1] deals with Genome polyprotein (dengue virus type 2) (UniProt P29990). Description: Inhibition of Dengue virus NS2B-NS3 protease at 50 uM using 2-Abz-Nle-Lys-Arg-Arg-Ser-(3-NO2)-Tyr-NH2 FRET substrate preincubated for 15 mins followed by substrate addition measured after 15 mins by fluorimetric analysis relative to control.
In another data set the target is Trypsin (Homo sapiens) (UniProt P07477+P07478+P35030). Description: Inhibition of trypsin (unknown origin) at 50 uM using Boc-Val-Pro-Arg-AMC as substrate preincubated for 15 mins followed by substrate addition measured after 10 mins by fluorimetric analysis relative to control. The format is protein assay.
Data set [2] addresses Genome polyprotein (West Nile virus) (UniProt P06935). Description: Inhibition of West Nile virus NS2B-NS3 protease at 50 uM using 2-Abz-Nle-Lys-Arg-Arg-Ser-(3-NO2)-Tyr-NH2 FRET substrate preincubated for 15 mins followed by substrate addition measured after 15 mins by fluorimetric analysis relative to control.
Data set [3] deals with Prothrombin (Homo sapiens) (UniProt P00734). Description: Inhibition of thrombin (unknown origin) at 50 uM using Boc-Val-Pro-Arg-AMC as substrate preincubated for 15 mins followed by substrate addition measured after 10 mins by fluorimetric analysis relative to control.
Data set [4] deals with Genome polyprotein (dengue virus type 2) (UniProt P29990). Description: Binding affinity to Dengue virus NS2B-NS3 protease assessed as presence of lysine and benzyloxy-phenylglycine residues in active site.
Another data set has as its system Huh-7. Description: Cytotoxicity against human HuH7 cells infected with Dengue virus serotype 2 assessed as effect on cell viability up to 50 uM after 48 hrs by Celltiter-blue assay. The format is cell-based. Particulars: huh-7, 48 h. (Alamar Blue is a resazurin reagent that responds to reducing activity.)
The test system of data set [5] is dengue virus type 2. Description: Antiviral activity against Dengue virus serotype 2 infected in HuH7 cells assessed as reduction in viral titer after 48 hrs by plaque assay. The settings on record: Huh-7, 48 h. The class given is functional, organism-based.
The target in data set [6] is T1, Genome polyprotein (dengue virus type 2, UniProt P29990). Description: Inhibition of Dengue virus NS2B-NS3 protease using 2-Abz-Nle-Lys-Arg-Arg-Ser-(3-NO2)-Tyr-NH2 FRET substrate preincubated for 15 mins followed by substrate addition measured after 15 mins by fluorimetric analysis.
Data set [7] deals with dengue virus type 2. Description: Binding affinity to Dengue virus serotype 2 […]-NS3 protease S135A mutant expressed in Escherichia coli BL21 lambda (DE3) cells assessed as effect on intrinsic fluorescence of tryptophan at active site up to 20 uM by tryptophan quenching assay.
For data set [8], the target named is Genome polyprotein (dengue virus type 2) (UniProt P29990). Description: Competitive inhibition of Dengue virus NS2B-NS3 protease assessed as increase in intrinsic fluorescence of tryptophan at active site up to 20 uM measured after 5 mins by tryptophan quenching assay.
For data set [9] the target is unchanged. Description: Competitive inhibition of Dengue virus NS2B-NS3 protease assessed as increase in intrinsic fluorescence of tryptophan at active site at 20 to 60 uM measured after 5 mins in presence of quencher by tryptophan quenching assay.
For data set [10] the target is unchanged. Description: Reversible inhibition of Dengue virus NS2B-NS3 protease assessed as increase in intrinsic fluorescence of tryptophan at active site at 60 uM pretreated for 16 hrs followed by quencher addition measured after 5 mins by tryptophan quenching assay.
Data set [11] deals with T1, Genome polyprotein. Description: Substrate activity at Dengue virus NS2B-NS3 protease assessed as time taken for peptide cleavage at 100 uM incubated for 11 hrs by HPLC-ESI/MS analysis. The format is ADME.
Data set [12] has as its system dengue virus type 2. Description: Binding affinity to Dengue virus serotype 2 […]-NS3 protease S135A mutant expressed in Escherichia coli BL21 lambda (DE3) cells assessed as effect on intrinsic fluorescence of tryptophan at active site at 20 to 60 uM measured after 5 mins in presence of quencher by tryptophan quenching assay.
For data set [13], the target named is Genome polyprotein (dengue virus type 2) (UniProt P29990). Description: Reversible inhibition of Dengue virus NS2B-NS3 protease at 60 uM preincubated for 3 to 6 hrs followed by 2-Abz-Nle-Lys-Arg-Arg-Ser-(3-NO2)-Tyr-NH2 FRET substrate addition followed by further compound dilution to 1.7 uM and measured every 30 mins for 2 hrs by dilution experiment based fluorimetric analysis.

For data set [14] the target is unchanged. Description: Competitive inhibition of Dengue virus NS2B-NS3 protease assessed as increase in intrinsic fluorescence of tryptophan at active site measured after 5 mins in presence of quencher by tryptophan quenching assay.
Data set [15] shares this target. Description: Time dependent irreversible inhibition of Dengue virus NS2B-NS3 protease at 60 uM preincubated for 3 to 6 hrs followed by 2-Abz-Nle-Lys-Arg-Arg-Ser-(3-NO2)-Tyr-NH2 FRET substrate addition followed by further compound dilution to 1.7 uM and measured every 30 mins for 2 hrs by dilution experiment based fluorimetric analysis.
Data set [16] deals with Genome polyprotein (West Nile virus, UniProt P06935). Description: Inhibition of West Nile virus NS2B-NS3 protease using 2-Abz-Nle-Lys-Arg-Arg-Ser-(3-NO2)-Tyr-NH2 FRET substrate preincubated for 15 mins followed by substrate addition measured after 15 mins by fluorimetric analysis.

Active and inactive are the calls of the source. The calls are words filed in the database; no cut-off is given here. Peptide text beside a SMILES is read from it. * marks the point of attachment. Bz = O=C(c1ccccc1)*

Regarding `N=C(N)NCCC[C@H](NC(=O)c1ccccc1)C(=O)N[C@@H](CCCCN)C(=O)N[C@@H](C(=O)N[C@@H]1CN(c2ccccc2)C1=O)c1ccc(OCc2ccccc2)cc1`, the inhibition in data set [1] is 68.8%; against Trypsin (Homo sapiens), less than 20%; in [2], 46.9%; in data set [3] it was less than 20%.

Turning to `N=C(N)NCCC[C@H](NC(=O)c1ccccc1)C(=O)N[C@@H](CCCCN)C(=O)N[C@@H](C(=O)N[C@@H]1CN(c2ccc(F)cc2)C1=O)c1ccc(OCc2ccccc2)cc1`, the inhibition is 65.5% in data set [1], less than 20% against Trypsin (Homo sapiens), 43.4% in data set [2] and less than 20% in [3].

For `N=C(N)NCCC[C@H](NC(=O)[C@H](CCCCN)NC(=O)c1ccccc1)C(=O)N[C@@H]1CN(c2ccccc2)C1=O`, the inhibition in data set [1] and in [2] was less than 20% each time.

Take `NCCCC[C@H](NC(=O)c1ccccc1)C(=O)N[C@@H](CCCCN)C(=O)N[C@@H]1CN(c2ccccc2)C1=O`: the inhibition in data set [1] was 39.7%; on Trypsin (Homo sapiens), greater than 20%; in data set [2], 51.7%.

In the case of `N=C(N)NCCC[C@H](NC(=O)c1ccccc1)C(=O)N[C@@H](CCCCN)C(=O)O` (Bz-Arg-Lys-OH), the result in [4] was Active.

As to `N=C(N)NCCC[C@H](NC(=O)c1ccccc1)C(=O)N[C@@H](CCCCN)C(=O)N[C@@H](C(=O)N[C@H]1CN(c2ccc(F)cc2)C1=O)c1ccc(OCc2ccccc2)cc1`, in the data set with Huh-7, the Activity entry is “Non-Toxic”. Also, in the data set on dengue virus type 2 [5], the EC50 is 4.1 µM. In addition, the inhibition in data set [1] stood at 96.3%; in [2], 60.9%. The same compound yielded an IC50 against Genome polyprotein [6] of 2.5 µM.

With `N=C(N)NCCC[C@H](NC(=O)c1ccccc1)C(=O)N[C@@H](CCCCN)C(=O)N[C@@H](C(=O)N[C@@H]1CN(c2cccc(F)c2)C1=O)c1ccc(OCc2ccccc2)cc1`, the inhibition in data set [1] was 80.8%; at Trypsin (Homo sapiens), less than 20%; in data set [2], 61.6%; in data set [3], less than 20%. The IC50 against Genome polyprotein [6] worked out at 12.4 µM.

For `CCCC[C@H](NC(=O)[C@H](CCCNC(=N)N)NC(=O)c1ccccc1)C(=O)N[C@@H]1CN(c2ccccc2)C1=O`, the inhibition in [1] and in data set [2] was less than 20% throughout.

Take `N=C(N)NCCC[C@H](NC(=O)c1ccccc1)C(=O)N[C@@H](CCCCN)C(=O)N[C@@H](C(=O)N[C@H]1CN(c2cccc(F)c2)C1=O)c1ccc(OCc2ccccc2)cc1`: the inhibition was found to be 96.8% in [1] and 64.1% in [2]. Further, the IC50 against Genome polyprotein [6] is 1.9 µM.

`Cc1cccc(N2C[C@H](NC(=O)[C@H](NC(=O)[C@H](CCCCN)NC(=O)[C@H](CCCNC(=N)N)NC(=O)c3ccccc3)c3ccc(OCc4ccccc4)cc3)C2=O)c1`: the results for the inhibition in [1] and in data set [2] were 96.5% and 46.8%, respectively. On Genome polyprotein [6], it took 2.8 µM to reach half-maximal inhibition (IC50).

Take `CCCC[C@H](NC(=O)[C@H](CCCCN)NC(=O)c1ccccc1)C(=O)N[C@@H]1CN(c2ccccc2)C1=O`: the figures for the inhibition (in data set [1]; on Trypsin (Homo sapiens); in [2]) were less than 20%, greater than 20% and 24.4%, respectively.

In the case of `COc1cccc(COc2ccc([C@@H](NC(=O)[C@H](CCCCN)NC(=O)[C@H](CCCNC(=N)N)NC(=O)c3ccc(-c4cccs4)s3)C(N)=O)cc2)c1`, the outcome in the data set on dengue virus type 2 [7] was Active. Further, the inhibition result in data set [8] was “Active”.

Regarding `N=C(N)NCCC[C@H](NC(=O)c1ccccc1)C(=O)N[C@@H](CCCCN)C(=O)N[C@@H]1CN(c2ccccc2)C1=O`, the results for the inhibition in data set [1] and in data set [2] were 71.6% and 27.8%, respectively. For the same compound, 17.7 µM corresponded to half-maximal inhibition against Genome polyprotein [6] (IC50).

Turning to `Cc1cccc(N2C[C@@H](NC(=O)[C@H](NC(=O)[C@H](CCCCN)NC(=O)[C@H](CCCNC(=N)N)NC(=O)c3ccccc3)c3ccc(OCc4ccccc4)cc3)C2=O)c1`, the inhibition in [1] is 77.7%; on Trypsin (Homo sapiens) it was less than 20%; in data set [2], 45.1%; in data set [3], less than 20%. Further, the IC50 against Genome polyprotein [6] came to 16.4 µM.

In the case of `N=C(N)NCCC[C@H](NC(=O)c1ccccc1)C(=O)N[C@@H](CCCCN)C(=O)N[C@@H](C(=O)N[C@H]1CN(c2ccccc2)C1=O)c1ccc(OCc2ccccc2)cc1`, in the data set on Huh-7, the Activity result is on record as “Non-Toxic”. For the same compound, the EC50 in the data set with dengue virus type 2 [5] was 11.7 µM. The inhibition was 96% in data set [1], 60.1% in data set [2] and “Dose-dependent effect” in data set [14]. For the same compound, the inhibition result in [9] and in [10] was “Active” in each case. Also, the Time on Genome polyprotein [11] worked out at 14 h. In addition, the result in the data set on dengue virus type 2 [12] was inactive. Moreover, the inhibition result in data set [13] and in data set [15] was “inactive” in each case. Further, on Genome polyprotein [6], it took 2.3 µM to reach half-maximal inhibition (IC50).

With `N=C(N)NCCC[C@H](NC(=O)[C@H](CCCCN)NC(=O)c1ccccc1)C(=O)N[C@H]1CN(c2ccccc2)C1=O`, the inhibition in data set [1] and in [2] was less than 20% in each case.

In the case of `Cc1ccc(N2C[C@H](NC(=O)[C@H](NC(=O)[C@H](CCCCN)NC(=O)[C@H](CCCNC(=N)N)NC(=O)c3ccccc3)c3ccc(OCc4ccccc4)cc3)C2=O)cc1`, the inhibition came to 95.9% in [1] and 60.3% in [2]. This compound returned an IC50 on Genome polyprotein [6] of 2.7 µM.

`Cc1ccc(N2C[C@@H](NC(=O)[C@H](NC(=O)[C@H](CCCCN)NC(=O)[C@H](CCCNC(=N)N)NC(=O)c3ccccc3)c3ccc(OCc4ccccc4)cc3)C2=O)cc1`: the inhibition in [1] was 73.5%; at Trypsin (Homo sapiens), less than 20%; in data set [2], 52.9%; in [3], less than 20%. Further, the IC50 against Genome polyprotein [6] came to 15.9 µM.

In the case of `CCCC[C@H](NC(=O)[C@H](CCCNC(=N)N)NC(=O)c1ccccc1)C(=O)N[C@H]1CN(c2ccccc2)C1=O`, the inhibition in [1] was less than 20%; on Trypsin (Homo sapiens) it was greater than 20%; in data set [2] it was less than 20%.

In the case of `NCCCC[C@H](NC(=O)c1ccccc1)C(=O)N[C@@H](CCCCN)C(=O)N[C@H]1CN(c2ccccc2)C1=O`, the inhibition in data set [1] and in [2] was less than 20% throughout.

In the case of `N=C(N)NCCC[C@H](NC(=O)c1ccccc1)C(=O)N[C@@H](CCCCN)C(=O)N[C@@H](C(N)=O)c1ccc(OCc2ccccc2)cc1`, the Time at Genome polyprotein [11] was 7 h.

As to `CCCC[C@H](NC(=O)[C@H](CCCCN)NC(=O)c1ccccc1)C(=O)N[C@H]1CN(c2ccccc2)C1=O`, the inhibition in data set [1] and in data set [2] was less than 20% throughout.

Take `N[C@@H](C(=O)N[C@H]1CN(c2ccccc2)C1=O)c1ccc(OCc2ccccc2)cc1`: the result in [4] was Active.

Regarding `N=C(N)NCCC[C@H](NC(=O)c1ccccc1)C(=O)N[C@@H](CCCCN)C(=O)N[C@H]1CN(c2ccccc2)C1=O`, on Genome polyprotein [16], the IC50 was determined as 22.5 µM. For the same compound, the figures for the inhibition in data set [1] and in data set [2] were 57.1% and 81.4%, respectively.
